From ChEMBL document CHEMBL1149924, “Structure activity studies on pseudo-symmetrical HIV-1 protease inhibitors” (Bioorg Med Chem Lett, 1993)

Tests used:
MT2 = test: Compound was evaluated for its inhibitory activity against HIV-1-IIIB infected MT2 cells (human T lymphoid cells); type: functional, cell-based
[1] = target: T1, Human immunodeficiency virus type 1 protease (Human immunodeficiency virus 1, UniProt Q72874); test: Inhibitory activity against HIV-1 protease
[2] = target: T1, Human immunodeficiency virus type 1 protease; test: Compound was evaluated for its binding affinity against HIV-1 protease using [125I]-SPA (scintillation proximity assay)
[3] = target: T1, Human immunodeficiency virus type 1 protease; test: Compound was evaluated for its inhibitory activity against recombinant HIV-1 protease using [125I]-SPA (scintillation proximity assay)
[4] = target: T1, Human immunodeficiency virus type 1 protease; test: Compound was evaluated for its inhibitory activity in recombinant HIV-l protease

Compound | IC50 (MT2) [nM] | IC50 [1] [nM] | also measured
COC(=O)[C@H](Cc1ccccc1)NC(=O)[C@@H](NC(=O)[C@H](Cc1ccccc1)CC(O)C[C@@H](Cc1ccccc1)C(=O)N[C@H](C(=O)N[C@@H](Cc1ccccc1)C(=O)OC)C(C)C)C(C)C | 2400 | 10 | 
COC(=O)[C@@H](NC(=O)[C@@H](NC(=O)[C@H](Cc1ccccc1)CC(O)C[C@@H](Cc1ccccc1)C(=O)N[C@H](C(=O)N[C@H](C(=O)OC)C(C)C)C(C)C)C(C)C)C(C)C | 1600 | 5 | 
CC[C@H](C)[C@H](NC(=O)[C@H](Cc1ccccc1)CC(O)C[C@@H](Cc1ccccc1)C(=O)N[C@H](C(=O)NCc1nc2ccccc2[nH]1)[C@@H](C)CC)C(=O)NCc1nc2ccccc2[nH]1 | 400 | 3 | Ki [2]: 3.5 nM; IC50 [3]: 40000 nM
CC(C)[C@H](NC(=O)[C@H](Cc1ccccc1)CC(O)C[C@@H](Cc1ccccc1)C(=O)N[C@H](C(=O)NCc1nc2ccccc2[nH]1)C(C)C)C(=O)NCc1nc2ccccc2[nH]1 | 2100 | 10 | 
COC(=O)[C@H](Cc1ccccc1)NC(=O)[C@H](CC(C)C)NC(=O)[C@H](Cc1ccccc1)CC(O)C[C@@H](Cc1ccccc1)C(=O)N[C@@H](CC(C)C)C(=O)N[C@@H](Cc1ccccc1)C(=O)OC | 2300 | 30 | 
CCCC[C@H](CC(O)C[C@@H](CCCC)C(=O)N[C@@H](CC(C)C)C(=O)N[C@@H](Cc1ccccc1)C(=O)OC)C(=O)N[C@@H](CC(C)C)C(=O)N[C@@H](Cc1ccccc1)C(=O)OC |  | 90 | 
COC(=O)[C@@H](NC(=O)[C@@H](NC(=O)[C@@H](CC(=O)C[C@@H](Cc1ccccc1)C(=O)N[C@H](C(=O)N[C@H](C(=O)OC)C(C)C)C(C)C)Cc1ccccc1)C(C)C)C(C)C |  | > 10000 | 
CCCC[C@H](CC(O)C[C@@H](CCCC)C(=O)N[C@@H](C)C(=O)N[C@@H](C)C(=O)OC)C(=O)N[C@@H](C)C(=O)N[C@@H](C)C(=O)OC |  | 75 | 
CCCC[C@H](CC1(C[C@@H](CCCC)C(=O)N[C@@H](CC(C)C)C(=O)N[C@@H](Cc2ccccc2)C(=O)OC)CO1)C(=O)N[C@@H](CC(C)C)C(=O)N[C@@H](Cc1ccccc1)C(=O)OC |  | 400 | 
CC[C@H](C)[C@H](NC(=O)[C@H](Cc1ccccc1)CC(O)C[C@@H](Cc1ccccc1)C(=O)N[C@H](C(=O)NCC1CCc2ccccc2N1)[C@@H](C)CC)C(=O)NCC1CCc2ccccc2N1 (stereo not given in full) | 7500 |  | IC50 [4]: 1200 nM
CCCC[C@H](CC(O)(CO)C[C@@H](CCCC)C(=O)N[C@@H](CC(C)C)C(=O)N[C@@H](Cc1ccccc1)C(=O)OC)C(=O)N[C@@H](CC(C)C)C(=O)N[C@@H](Cc1ccccc1)C(=O)OC |  | 2000 | 
CC[C@H](C)[C@H](NC(=O)[C@H](Cc1ccccc1)CC(O)C[C@@H](Cc1ccccc1)C(=O)N[C@H](C(=O)NCc1ccccn1)[C@@H](C)CC)C(=O)NCc1ccccn1 | 500 |  | IC50 [4]: 450 nM
CC(C)CNC(=O)[C@H](Cc1ccccc1)CC(O)C[C@@H](Cc1ccccc1)C(=O)NCC(C)C |  | > 1000 | 
CCCC[C@H](CC(O)C[C@@H](CCCC)C(=O)N[C@H](C(=O)N[C@H](C(=O)OC)C(C)C)C(C)C)C(=O)N[C@H](C(=O)N[C@H](C(=O)OC)C(C)C)C(C)C |  | 5 | 
CC[C@H](C)[C@H](NC(=O)[C@H](Cc1ccccc1)CC(O)C[C@@H](Cc1ccccc1)C(=O)N[C@H](C(=O)NCCN1CCOCC1)[C@@H](C)CC)C(=O)NCCN1CCOCC1 | > 10000 |  | IC50 [4]: 850 nM
